From US11447550B2, “Peptides for molecular detection of PD-L1” (THE CURATORS OF THE UNIVERSITY OF MISSOURI, priority 2016, dated 2022) come the findings set out here.

The target of experiment [1] is T1, PD-L1 (Homo sapiens, UniProt Q9NZQ7). In words: Immunohistochemistry using biotinylated peptide on FFPE tissues. Also on record: Seven PD-L1 expressing NSCLC patient tissues were obtained from the MU OneHealth tissue bank; tissue MU OneHealth tissue bank; U.S. Biomax (TMA) LC1923; host or cells: FFPE placenta, seven NSCLC patient tissues, 192-case lung cancer tissue microarray, four Hodgkin's lymphoma cases. It is filed as binding. Conditions: for staining of placental trophoblasts: FFPE placenta tissue (positive control), FIG. 8. The source says:
To detect PD-L1 in FFPE tissues, manual IHC techniques were employed with a biotin-conjugated version of peptide RK-10-Cy5 and compared with Ventana PD-L1 (SP263) Rabbit monoclonal Primary Antibody stained on a Roche Benchmark Ultra autostainer. Seven PD-L1 expressing NSCLC patient tissues were obtained from the MU OneHealth tissue bank and de-identified according to IRB protocols. Paraffin-embedded patient tissue slides were baked overnight, then de-waxed and rehydrated according to standard protocols. Tissue sections were then subjected to antigen retrieval in EDTA at 95° C. for 20 minutes in EDTA […]. The solution is then cooled for an additional 20 minutes on the bench top prior to buffer rinse. Tissues were then incubated with […] for 2 hours in a humid chamber at RT. After 2 hours, slides were washed with buffer and treated with PIERCE™ High Sensitivity Streptavidin-HRP (1:200 dilution) (Sigma) for 30 minutes at RT in a humid chamber. Once this was complete, slides were again washed in buffer then treated with DAB (3,3′-Diaminobenzidine; Sigma) for 10 minutes. Slides were again washed in buffer, then dehydrated using graded alcohol and xylene and counterstained with hematoxylin. Slides were then imaged using bright-field microscopy on a Leica DM5500.
Seven Patient NSCLC tissues were investigated for PD-L1 using either manual IHC with 15 μM RK-10-Biotin peptide, or the Ventana PD-L1 (SP263) rabbit monoclonal primary antibody stained on a Roche Benchmark Ultra. In this study the peptide was conjugated with biotin, which was used to bind a secondary treatment of streptavidin-HRP. Formalin-Fixed, Paraffin Embedded (FFPE) placenta tissue was used as the positive control, since PD-L1 is expressed in placental trophoblasts (Veras, E., Kurman, R. J., Wang, T.-L. & Shih, I.-M. International Journal of Gynecological Pathology Publish Ahead of Print). This study also utilized biotinylated mock peptide RK-11-Biotin as a negative control. This mock peptide was synthesized to have very low affinity to PD-L1. Both the PD-L1 peptide and Ventana clone SP263 stained the trophoblasts heavily in the placental tissue (FIG. 8). […] Blocking of the Ventana antibody was achieved by first treating the placenta tissue with RK-10-Biotin for 30 minutes, washing, and treating on the Roche autostainer according to specifications. […] As a negative control, normal lung, breast, and colorectal tissues were stained using RK-10 and SP263.
Once confidence in PD-L1 staining was established in repeated placenta tissues, staining in seven NSCLC patient tissues (patients ‘A’ through ‘G’) was compared with the Ventana SP263 antibody and RK-10-Biotin (FIG. 9). […]

The target in experiment [2] is T1, PD-L1. In words: IHC blocking using PD-L1 peptide or Ventana antibody SP263. In kind it is binding. Also on record: Seven PD-L1 expressing NSCLC patient tissues were obtained from the MU OneHealth tissue bank; tissue MU OneHealth tissue bank; U.S. Biomax (TMA) LC1923; host or cells: FFPE placenta, seven NSCLC patient tissues, 192-case lung cancer tissue microarray, four Hodgkin's lymphoma cases. Conditions: placenta tissue treated with RK-10-Biotin for 30 minutes, then Ventana SP263 on Roche autostainer, FIG. 8 panel c. On the procedure:
To test specificity of the PD-L1 peptide, PD-L1 receptors were first blocked on the tissue with RK-10 peptide for 1 hour prior to autostaining the tissue with SP263 antibody using the Roche autostainer with the Ventana PD-L1 kit according to Roche's specifications. Blocking of the RK-10 peptide using the SP263 antibody was also investigated by first treating the tissue with SP263 antibody for 30 minutes prior to treating the tissue with peptide according to the previously mentioned protocol.
Seven Patient NSCLC tissues were investigated for PD-L1 using either manual IHC with 15 μM RK-10-Biotin peptide, or the Ventana PD-L1 (SP263) rabbit monoclonal primary antibody stained on a Roche Benchmark Ultra. In this study the peptide was conjugated with biotin, which was used to bind a secondary treatment of streptavidin-HRP. Formalin-Fixed, Paraffin Embedded (FFPE) placenta tissue was used as the positive control, since PD-L1 is expressed in placental trophoblasts (Veras, E., Kurman, R. J., Wang, T.-L. & Shih, I.-M. International Journal of Gynecological Pathology Publish Ahead of Print). This study also utilized biotinylated mock peptide RK-11-Biotin as a negative control. This mock peptide was synthesized to have very low affinity to PD-L1. Both the PD-L1 peptide and Ventana clone SP263 stained the trophoblasts heavily in the placental tissue (FIG. 8). […]

Ends that are not written are not given here. * marks the point of attachment. Biotin = O=C1N[C@H]2[C@H](CS[C@H]2CCCCC(=O)*)N1

T1 sequence (Q9NZQ7 19-290): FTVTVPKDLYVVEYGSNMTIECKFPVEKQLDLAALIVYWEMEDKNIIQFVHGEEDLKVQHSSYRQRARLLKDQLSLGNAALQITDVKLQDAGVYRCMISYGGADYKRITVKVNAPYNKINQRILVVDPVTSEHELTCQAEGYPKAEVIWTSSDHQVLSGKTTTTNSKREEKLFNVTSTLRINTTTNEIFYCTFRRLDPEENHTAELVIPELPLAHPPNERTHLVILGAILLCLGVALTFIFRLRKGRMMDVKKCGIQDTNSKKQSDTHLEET

Regarding “Biotin-GSGSGSFVLNWYRMSPSNQTDKLAA [RK-11-Biotin]”, the “staining of placental trophoblasts” value in experiment [1] is given as “light staining at high concentrations”.
For the substance “Biotin-GSGSGSTYLCGAISLAPKAQIKESL [RK-10-Biotin]”, the “staining of placental trophoblasts” value in experiment [1] is reported as “heavy membrane staining of the trophoblast cells”. Moreover, in experiment [1] (seven NSCLC patient tissues A-G, 15 μM peptide, FIG. 9), the “tumor staining in NSCLC patient tissues” value is reported as “heaviest staining was observed localized to the tumor regions of the tissues”. Moreover, in experiment [2], the “SP263 staining after pre-blocking with peptide” value is reported as “drastic reduction of staining”.
Turning to GSGSGSTYLCGAISLAPKAQIKESL [RK-10], in experiment [1] (normal lung, breast and colorectal tissues (negative control)), the “staining of normal tissues” value is “negative for PD-L1 expression”.
